A melting point compilation (Tetko et al.; mined from patent text by program, amines drawn as free bases though some values may be those of a salt)
Residues, ends and D or L forms follow the SMILES beside them.

Row | Structure (SMILES) | melting point [°C]
1 | Cc1ccccc1Oc1cccc2c1OC(=O)C2(C)C | 115 to 117
2 | CCOC(=O)c1nn(-c2ccccc2Br)c(=O)c2c(N)scc12 | 203 to 205
3 | COc1cc(OC)c2c(=O)[nH]c(-c3ccc(OCCO)c(-c4cccc(S(C)=O)c4)n3)nc2c1 (configuration not stated) | 272 to 273
4 | Cc1noc(NS(=O)(=O)c2ccccc2N)c1C | 116 to 118
5 | N#CC1=C(c2cc3ccccc3s2)Nc2n[nH]cc2C1c1cccc2nonc12 (configuration not stated) | 220
6 | O=C(N[C@H]1CN2CCC1CC2)C(Cc1ccccc1)c1ccccc1 (some centres not stated) | 142
7 | COCC1=Nc2ccccc2C(=O)C1 | 184 to 185
8 | CCOC(=O)c1cn(-c2cc([N+](=O)[O-])c(F)cc2F)c2cc(F)c(F)cc2c1=O | 165 to 173
9 | N#Cc1ccc(Nc2ncc(Cl)c(O)n2)cc1 | > 300
10 | N#CCCn1c(-c2ccccc2)cc2ccccc21 | 90
11 | CCn1ccc2ncnc(Oc3ccc(NC(=O)Nc4cccc(C(F)(F)F)c4)c(Cl)c3)c21 | 172 to 176
12 | CCCOc1ccccc1Nc1ncc(C(=O)O)c(=O)[nH]1 | 202 to 204
13 | OCc1ccc2[nH]cc(CCCCN3CC=C(c4ccccc4)CC3)c2c1 | 162 to 164
14 | Cc1cc(Oc2c(Cl)cc(C(F)(F)F)cc2Cl)nn1C(=O)NCc1ccccn1 | 121 to 123
15 | CCOc1ccc2c(c1)n(CCN(C(C)C)C(C)C)c(=O)n2S(=O)(=O)c1ccc(OC)cc1OC | 132
16 | CN(C)C(N)=Nc1cc(C#N)ccc1N1CCOCC1 | 125 to 127
17 | CCCc1nnc(/C=C/c2cn(-c3ccccc3)nc2OCc2ccc(OCc3nc(-c4ccco4)oc3C)c(OC)c2)o1 | 165 to 166
18 | C=C(c1ccccc1OC(C)c1ccccc1)n1ccnc1 (configuration not stated) | 172 to 174
19 | CCC(=O)N[C@H]1CC[C@H](CCN2CCN(c3nccc4ccoc34)CC2)CC1 | 188
20 | O=[N+]([O-])c1ccc2c(c1)CCN(Cc1ccc3cc([N+](=O)[O-])ccc3n1)CC2 | 127 to 130
21 | COC(=O)c1ccc(NC(=O)CBr)cc1 | 144 to 146
22 | COC(=O)C(C)CC(=O)C(Cc1ccccc1)NC(=O)c1ccccc1 (configuration not stated) | 97 to 98.5

Row | Structure (SMILES) | melting point [°C]
23 | CCn1c2cc(C=O)ccc2c2c3ccccc3ccc21 | 148 to 149
24 | CCOc1cc2c(cn1)[nH]c1ccccc12 | 130 to 133
25 | CCOC=C(C=C(C#N)C#N)CCc1ccc(C(=O)OC)cc1 | 136 to 137
26 | O=C(O)COn1cccn1 | 99
27 | CNc1nc(C)c(C(=O)c2ccc(N)c(N)c2)s1 | 115 to 125
28 | COc1ccc(OC)c(-c2c(O)c3ccc(Cl)cc3[nH]c2=O)c1 | 280 to 282
29 | CCN(c1cc(C)c(C)c2cc(-c3ncc(CO)s3)[nH]c12)S(=O)(=O)c1cccs1 | 189 to 190
30 | CCc1c(-c2ccc(OCc3ccccc3)cc2)c2c(C(=O)N(C)C)cc3cccc1n32 | 92 to 95
31 | CN(C)S(=O)(=O)c1cccc2c1Sc1ccc(OCc3ccccc3)cc1N2 | 192 to 194
32 | C=CCN1C(=O)c2cccc3c(OCCO)ccc(c23)C1=O | 144 to 145
33 | CN1CC(c2cc(CCc3ccc(F)cc3)ccn2)=C(O)C1=O | 167 to 168
34 | O=C(O)CC(NC(=O)OCc1ccccc1)C(=O)CON1C(=O)Cc2ccccc21 (configuration not stated) | 58 to 70
35 | CCCc1nc(C(O)C(C)C)c(C(N)=O)n1Cc1ccc(-c2ccccc2-c2nnn[nH]2)cc1 (configuration not stated) | 153 to 157
36 | O=C1NC(=S)C(c2c[nH]c3ccccc23)=C1c1c[nH]c2ccccc12 | 254 to 257
37 | CCCCNC(=O)OC1c2cc(Cl)ccc2C(=O)N1c1ccc2ccc(Cl)nc2n1 (configuration not stated) | 228 to 230
38 | COc1ccc([C@H]2CC[C@H](c3ccc(OC)c(OC)c3)S2)cc1OC (relative stereo) | 103 to 105
39 | Nc1c(Cl)cc(C(O)CNCCCCCCOCCc2ccccn2)cc1C(F)(F)F (configuration not stated) | 51.5 to 53
40 | CCOC(=O)COC1CCN(C(=O)[C@H](C)NC(=O)c2ccc(C(N)=NO)cc2)CC1 | 212 to 213
41 | O=C(OCC1=CC(O)C2C=COC(OC3OC(CO)C(O)C(O)C3O)C12)c1ccc(O)cc1 (configuration not stated) | 148 to 150
42 | CN(C)C1=C(Cl)C(=O)NC1=Nc1ccccc1 | 135 to 138
43 | CC(C)n1nc(C(=O)C(=O)c2ccccc2)ccc1=O | 71 to 73
44 | CC1(C)Cc2ccccc2C=[N+]1[O-] | 70 to 72

Row | Structure (SMILES) | melting point [°C]
45 | COc1c(OCc2ccccc2)ccc2cc[nH]c12 | 66 to 67
46 | CC(C)N1CC=C(c2c[nH]c3ccccc23)CC1 | 178
47 | CCOc1ccc(N(C)C)cc1-c1ncc(C(=O)O)c(=O)[nH]1 | 187 to 196
48 | O=[N+]([O-])c1cccc(C2=NOCCS2)c1 | 114 to 115
49 | Cn1c(CC(=O)NC2CN3CCC2CC3)cc2ccccc21 (configuration not stated) | 185 to 187
50 | Cn1cc2c(=O)[nH]c(=O)[nH]c2n1 | 200
51 | CCOCc1nc2c(N)nc3cc(-c4ccc(F)nc4)cnc3c2n1CC(C)(C)F | 198 to 199
52 | CN1CC=C(c2c[nH]c3ccc(NC(N)=S)cc23)CC1 | 209 to 211
53 | O=C(NS(=O)(=O)NCC1CCCO1)OCc1ccccc1 (configuration not stated) | 96 to 97
54 | CCc1nn2c(-c3ccc(Cl)cc3Cl)cccc2c1N(CC)CC | 118 to 121
55 | COc1ccc(C(=O)NC2CCCCC2)c2c1OCC2C(=O)OCc1ccccc1 (configuration not stated) | 178 to 179
56 | COc1ccc(CC(=O)Nc2cc(Cl)ccc2O)cc1OC1CCCC1 | 151 to 152
57 | Cc1cc(F)ccc1-c1nc(-c2cn(N)c(=O)[nH]c2=O)nc2c1ccc(=O)n2-c1c(F)cccc1F | > 300
58 | Fc1ccc2[nH]cc([C@H]3CC[C@H](NCc4ccccc4)CC3)c2c1 | 131 to 133
59 | N#Cc1ccc(N=CNc2ccc(C#N)cc2)cc1 | 214 to 217
60 | COC(=O)C1C(=O)Nc2ccc(C(F)(F)F)cc2CC1c1ccccc1Cl (configuration not stated) | 183 to 184
61 | CCOC(=O)C(=O)NCC(=O)C(C)(C)C | 82 to 85
62 | CC1CN(c2c(F)cc3c(=O)c(C(=O)O)cn(CCF)c3c2F)CC1CN (configuration not stated) | 228 to 232
63 | N#Cc1ccc(C=Cc2ccc(-c3cc4ccccc4o3)cc2)cc1 | 314 to 315
64 | NS(=O)(=O)c1ccc(-n2nc(C(F)(F)F)c(Cl)c2-c2ccc(Cl)cc2)cc1 | 180 to 182
65 | CC1CCN(C)c2nc3[nH]c(=O)cc(C(F)(F)F)c3cc21 (configuration not stated) | 225 to 230

Continued, values first:

Row | melting point [°C] | Structure (SMILES)
66 | 101 | C=CCC(O)(Cn1cncn1)c1ccc(Cl)cc1Cl (configuration not stated)
67 | 103 to 105 | CCC(=O)NCc1ccc(CN2CCN(c3ncccn3)CC2)cc1
68 | 161 to 165 | CCC(C)(C)NC(Nc1ccc2c(c1)OCO2)=C(C#N)C(=O)C(C)(C)C
69 | 208 to 209 | COc1cc2ncnc(N3CCN(C(=O)Nc4cccnc4)CC3)c2cc1OC
70 | 225 to 227 | CCCCc1oc2ccccc2c1C(=O)Nc1ccc(-c2ccc(OCC(=O)O)cc2)cc1
71 | 95 to 98 | O=C(CNC(=O)OCc1ccccc1)NCC1CCCCC1
72 | 192 to 194 | O=C(Nc1ccc2cc(CN3CCCC3)cnc2c1)c1ccc(-c2ccccc2)cc1
73 | 223 to 225 | CC1(C)C(=O)Nc2ccc(-c3ccc([N+](=O)[O-])s3)cc21
74 | 227 | CN1CCN(c2nc3sc4c(NCCCn5ccnc5)ncnc4c3c3c2COC(C)(C)C3)CC1
75 | 59 to 63 | Cc1cc(C)c(N2CCCc3c2nn(C)c3-c2ccccc2C(F)(F)F)c(C)c1
76 | > 220 | FC1(F)N=c2cc3c(cc2=N1)OC(Cl)O3
77 | 180 to 186 | CCOC(=O)C(=O)Nc1ccc2[nH]c(=O)oc2c1
78 | 181 | CCOC(=O)CCCOc1ccc2nc3c(cc2c1)CC(=O)N3
79 | 193 to 194 | COc1ccc(-c2cnc3[nH]cc(C(=O)NC4CCN(C)C4)c3n2)cc1OC (configuration not stated)
80 | 110 to 111 | CCCOc1cc(COc2c(CC)cccc2CC(=O)O)n(Cc2ccc3ccccc3n2)n1
81 | 179 to 182 | COC1(OC)CN(c2nc3c(cc2F)C=C(C(=O)O)CN3c2ccc(F)cc2F)CC1C (configuration not stated)
82 | 236 to 237 | Cc1cccc2c1nc(-c1cccc(Cl)c1[N+](=O)[O-])n2CC(O)C(C)(C)C (configuration not stated)
83 | 270 | C=CC(=O)Nc1ccc2c(Nc3cccc(C)c3)ncnc2c1
84 | 234 to 236 | CSCCC(N)C(=O)NC(CCSC)C(=O)O (stereo not drawn) (H-Met-Met-OH; configuration not given here)

Row | melting point [°C] | Structure (SMILES)
85 | 192 to 193 | CSc1sc(C(N)=O)c2c1-c1sc(-c3ccccc3)cc1CC2
86 | 91 to 92 | O=C(c1cccc(C(F)(F)F)c1)c1cc2c(Br)cccc2o1
87 | 114 to 116 | COc1ccc([C@@H]2CC=CC[C@H]2[N+](=O)[O-])cc1OC (racemic)
88 | 190 to 192 | COc1ccc(/C(=C/C(=O)O)c2cc(C)cc(Cl)c2)cc1
89 | 89 to 91 | CN1CC(CCN2CCN(c3ccc(Cl)c(Cl)c3)CC2)OC1=O (configuration not stated)
90 | 118 to 121 | Cc1ccc(C(=O)c2ccc(CC#N)n2C)s1
91 | 290 | Cc1cc(O)nc(N(C)C#N)n1
92 | 130 to 131 | CC(C)(C)OC(=O)NCCNC(=O)c1cc([N+](=O)[O-])ccn1
93 | 152 to 154 | COc1cc2c(cc1OC(=O)c1ccccc1)C1Cc3c(Cl)cc(OC)c(OC(=O)c4ccccc4)c3CN1CC2 (configuration not stated)
94 | 170 | Cc1c(C(=O)Nc2ncc(CO)s2)nnn1Cc1ccc(Cl)c(Cl)c1
95 | 233 to 234 | CNc1nc(Cl)nc2c(SC)ncnc12
96 | 209 to 212 | CC(C)(Cn1c(CCO)nc2c(N)nc3ccccc3c21)NS(C)(=O)=O
97 | 192 to 194 | Nc1nc(-c2cc(Cl)ccc2Cl)nc(N2CCCCC2)n1
98 | 256 to 258 | Cc1cc(C)cc(Oc2c(CCl)c(C)[nH]c(=O)c2I)c1
99 | 54.5 to 57.5 | CCCCCCCCNC(=O)Nc1nc2nc(NCCCN3CCN(C)CC3)ncc2cc1-c1c(Cl)cccc1Cl
100 | 70 to 74 | O=C(O)CC1(CC(O)=NO)CCCC1
101 | 273 to 276 | O=C(O)c1cn(C2COC2)c2cc(F)c(F)c(O)c2c1=O
102 | 264 to 265 | N#Cc1ccc(-c2cc(-c3ccc(C#N)cc3[N+](=O)[O-])no2)cc1
